# Results: patent US6060597A, “Cyclic oligosaccharide, and an agent containing the same for preventing or treating retroviral diseases” (Kikkoman Corporation, priority 1997, dated 2000)
# Tests used:
# fresh rat blood [1] = experiment: anticoagulation activity in fresh rat blood, microtiter plate, visual evaluation of serum separation; assay type: biochemical; conditions: citrated fresh rat blood, CaCl2-initiated, 15 minutes at room temperature; for anticoagulation activity: judged against 20 U/mg standard
# Protocol: Anticoagulation activity of sulfated cyclic oligosaccharide
# Sulfated CI-8 was examined for its anticoagulation activity. 1% aqueous sulfated CI-8 solution obtained by dissolving 10 mg of sulfated CI-8 sodium in 1 ml de-ionized water was diluted at various concentrations with 0.85% sterilized NaCl solution (physiological saline) to prepare sulfated CI-8 solutions at various concentrations. Solutions of dextran 5000 sodium sulfate (Wako Pure Chemical Industries, Ltd.) at various concentrations were also prepared in the same manner. Standard solutions at various concentrations were prepared using dextran sodium sulfate having 20 U/mg anticoagulation activity (a gift from Meito Sangyo K. K.).
# 40 μl each of the aqueous solutions were put to each well on a 96-well microtiter plate. Then, 50 μof fresh rat blood containing 0.38% trisodium citrate was put to each well and mixed. Further, 10 μl of 2% aqueous CaCl2 solution and mixed whereby blood-coagulation reaction was initiated. The plate was left at room temperature for 15 minutes and centrifuged at 2000 rpm for 10 minutes, and the separation of the serum in each well was visually evaluated. As a result, the anticoagulation activity of sulfated CI-8 was judged to be about 1/2 relative to the known dextran sodium sulfate, so its activity was judged to be about […]. The activity of dextran 5000 sodium sulfate was judged to be about 40 U/mg.
# fresh rat blood [2] = conditions: stated activity of the standard substance (gift from Meito Sangyo K. K.); cited from earlier work
# [3] = biological target: binding of gp120 to CD4 receptor (HIV-1 M:B_HXB2R, UniProt P04578); experiment: inhibition of the binding of gp120 to CD4 receptor (drug discovery kit, duPont); conditions: concentration range of 0 to 100 mg/ml; FIG. 5
# Protocol: Measurement of anti-HIV activity of sulfated CI-8
# Sulfated CI-8 obtained above in Example 1 was examined for the activity of inhibiting the binding of gp120 to CD4 receptor in the concentration range of […] using a drug discovery kit (duPont).
Substance,anticoagulation activity (fresh rat blood [1]),anticoagulation activity of the standard (fresh rat blood [2]) [U/mg],anticoagulation activity relative to the known dextran sodium sulfate (fresh rat blood [1]; relative to 20 U/mg standard),activity of inhibiting the binding of gp120 to CD4 receptor [3]
dextran 5000 sodium sulfate [reference compound],about 40 U/mg,,,
dextran sodium sulfate,,20,,
cyclic isomaltoctaose-heptadecyl-0-sulfate sodium salt [sulfated CI-8],about 10 U/ml,,about 1/2,inhibited the binding of pg120 to CD4 in proportion to its concentration
